From patent US20070027184A1, “Multicyclic sulfonamide compounds as inhibitors of histone deacetylase for the treatment of disease” (KALYPSYS, INC., priority 2005, published 2007)
Read-outs that look alike come from different tables or passages of the source.

Key:
[1] = test system: HDAC in cells; experiment: Cellular IC50 (cellular histone hyperacetylation / differential cytotoxicity assays); format: cell-based
Procedure: These two secondary assays evaluates a compound's ability to inhibit HDAC in cells by measuring cellular histone acetylation levels. The cytoblot facilitates quantitative EC50 information for cellular HDAC inhibition. Transformed cell lines (e.g. HeLa, A549, MCF-7) are cultured under standard media and culture conditions prior to plating.
Cells (approx. 2,500/well) are allowed to adhere 10-24 hours to wells of a 384-well Greiner PS assay plate in media containing 1-5% serum. Cells are treated with appropriate compound and specific concentrations for 0 to 24 hours. Cells are washed once with PBS (60 ul) and then fixed (95% ethanol, 5% acetic acid or 2% PFA) for 1 minute at RT (30 ul). Cells are blocked with 1% BSA for 1 hour and washed and stained with antibody (e.g. anti-Acetylated Histone H3, Upstate Biotechnology), followed by washing and incubation with an appropriate secondary antibody conjugated to HRP or fluorophore. For luminescence assays, signal is generated using Luminol substrate (Santa Cruz Biotechnology) and detected using an Aquest plate reader (Molecular Devices).
HDAC inhibitors display differential cytotoxicity toward certain transformed cell lines. Cells are cultured according to standard ATCC recommended conditions that are appropriate to each cell type. Compounds were tested for their ability to kill different cell types (normal and transformed) using the ATPlite luminescence ATP detection assay system (Perkin Elmer). Assays are run in either 384-well or 1536-well Greiner PS plates. Cells (30 ul or 5 ul, respectively) are dispensed using either multichannel pipette for 384-well plates, or proprietary Kalypsys bulk liquid dispenser for 1536-well plates. Compounds added using proprietary pin-transfer device (500 nL or 5 nL) and incubated 5 to 30 hours prior to analysis. Luminescence is measured using Aquest plate reader (Molecular Devices).

[2] = test system: HCT-116 colorectal cancer cells; experiment: in vivo; details: for T/C value for efficacy at MTD: daily oral gavage
Procedure: (§1) 5×10^6 HCT-116 colorectal cancer cells were injected subcutaneously into the right flank of 4-6 week old female nude (nu/nu) mice. […] Tumor burden was determined twice weekly by measurement with calipers in 2-dimensions (length (l)×width (w)) and the volume of spheroid calculated using the formula (l×(w)^2/2). Bodyweight was measured and recorded on same day as tumor volume measurement.

[3] = in vivo; details: female, mouse, in vivo
Procedure: as §1

[4] = test system: HDAC; experiment: In vitro HDAC-inhibition assay (Fluor de Lys); format: biochemical
Procedure: This assay measures a compound's ability to inhibit acetyl-lysine deacetylation in vitro and was used as both a primary screening method as well as for IC50 determinations of confirmed inhibitors. The assay is performed in vitro using an HDAC enzyme source (e.g. partially purified nuclear extract or immunopurified HDAC complexes) and a proprietary fluorescent substrate/developer system (HDAC Quantizyme Fluor de Lys Fluorescent Activity Assay, BIOMOL). The assay is run in 1,536-well Greiner white-bottom plates using the following volumes and order of addition:
Step 1: Enzyme (2.5 ul) source added to plate (from refrigerated container)
Step 2: Compounds (50 nl) added with pin transfer device
Step 3: Fluor de Lys (2.5 ul) substrate added, incubate at RT, 30 minutes
Step 4: Developer (5 ul) solution is added (containing TSA), to stop reaction
Step 5: Plate Reader—data collection
The deacetylated fluorophore is excited with 360 nm light and the emitted light (460 nm) is detected on an automated fluorometric plate reader (Aquest, Molecular Devices).

[5] = 50 mg/kg QD orally, data from another study

| IC50 [4] | SMILES | IC50 [1] | other results |
| --- | --- | --- | --- |
| ≤ 1000 nM | CC(=O)SCC(=O)c1ccc(NS(=O)(=O)c2ccc3c(c2)ncn3C)nc1 [Example 2] | ≤ 1000 nM |  |
| ≤ 1000 nM | CC(=O)SCC(=O)c1ccc(NS(=O)(=O)c2ccc3c(c2)OCCO3)cn1 [Example 3, Thioacetic acid S-{2-[5-(2,3-dihydro-benzo[1,4]dioxine-6-sulfonylamino)-pyridin-2-yl]-2-oxo-ethyl}ester] | ≤ 1000 nM |  |
|  | CC(=O)SCC(=O)c1ccc(NS(=O)(=O)c2ccc3c(c2)CCO3)nc1 [Example 4, Thioacetic acid S-{2-[6-(2,3-dihydro-benzofuran-5-sulfonylamino)-pyridin-3-yl]-2-oxo-ethyl}ester] | ≤ 1000 nM |  |
| ≤ 1000 nM | CC(=O)SCC(=O)c1ccc(NS(=O)(=O)c2ccc3ncccc3c2)cc1 [Example 5, Thioacetic acid S-{2-oxo-2-[4-(quinoline-6-sulfonylamino)-phenyl]-ethyl}ester] | ≤ 1000 nM |  |
| ≤ 1000 nM | CC(=O)SCC(=O)c1ccc(NS(=O)(=O)c2ccc3c(c2)OCO3)nc1 [Example 6, Thioacetic acid S-{2-[6-(benzo[1,3]dioxole-5-sulfonylamino)-pyridin-3-yl]-2-oxo-ethyl}ester] | ≤ 1000 nM |  |
| ≤ 1000 nM | CC(=O)SCC(=O)c1cnc(NS(=O)(=O)c2ccc3c(c2)OCCO3)nc1 [Example 7, Thioacetic acid S-{2-[2-(2,3-dihydro-benzo[1,4]dioxine-6-sulfonylamino)-pyrimidin-5-yl]-2-oxo-ethyl}ester] | > 1000 nM |  |
| ≤ 1000 nM | O=C(CSSCC(=O)c1ccc(NS(=O)(=O)c2ccc3c(c2)OCCO3)nc1)c1ccc(NS(=O)(=O)c2ccc3c(c2)OCCO3)nc1 [Example 8, 2,3-Dihydro-benzo[1,4]dioxine-6-sulfonic acid [5-(2-mercapto-acetyl)-pyridin-2-yl]-amide disulfide] | ≤ 1000 nM |  |
| > 1000 nM | O=C(O)CCSCC(=O)c1ccc(NS(=O)(=O)c2ccc3c(c2)OCCO3)nc1 [Example 9, 3-{2-[6-(2,3-Dihydro-benzo[1,4]dioxine-6-sulfonylamino)-pyridin-3-yl]-2-oxo-ethylsulfanyl}propionic acid] |  |  |
| ≤ 1000 nM | CN(C)CCSSCC(=O)c1ccc(NS(=O)(=O)c2ccc3c(c2)OCCO3)nc1 [Example 10, 2,3-Dihydro-benzo[1,4]dioxine-6-sulfonic acid {5-[2-(2-dimethylamino-ethyldisulfanyl)-acetyl]-pyridin-2-yl}-amide] | ≤ 1000 nM |  |
| ≤ 1000 nM | O=C(CS)c1ccc(NS(=O)(=O)c2ccc3c(c2)OCCO3)nc1 [Example 11, 2,3-Dihydro-benzo[1,4]dioxine-6-sulfonic acid[5-(2-mercapto-acetyl)-pyridin-2-yl]-amide] | ≤ 1000 nM |  |
| ≤ 1000 nM | O=C(CSC(=O)c1ccccc1)c1ccc(NS(=O)(=O)c2ccc3c(c2)OCCO3)nc1 [Example 12, Thiobenzoic acid S-{2-[6-(2,3-dihydro-benzo[1,4]dioxine-6-sulfonylamino)-pyridin-3-yl]-2-oxo-ethyl}ester] | ≤ 1000 nM |  |
| ≤ 1000 nM | NC(CSSCC(=O)c1ccc(NS(=O)(=O)c2ccc3c(c2)OCCO3)nc1)C(=O)O (stereo not shown) [Example 13, 2-Amino-3-{2-[6-(2,3-dihydro-benzo[1,4]dioxine-6-sulfonylamino)-pyridin-3-yl]-2-oxo-ethyldisulfanyl}-propionic acid] | ≤ 1000 nM |  |
|  | CC(=O)SCC(=O)c1ccc(NS(=O)(=O)c2ccc3c(c2)OCCN3C)nc1 [Example 14, Thioacetic acid S-{2-[6-(4-methyl-3,4-dihydro-2H-benzo[1,4]oxazine-7-sulfonylamino)-pyridin-3-yl]-2-oxo-ethyl}ester] | ≤ 1000 nM |  |
|  | CC(=O)SCC(=O)c1ccc(NS(=O)(=O)c2ccc3c(c2)OCCCO3)nc1 [Example 15, Thioacetic acid S-{2-[6-(3,4-dihydro-2H-benzo[b][1,4]dioxepine-7-sulfonylamino)-pyridin-3-yl]-2-oxo-ethyl}ester] | ≤ 1000 nM |  |
|  | CC(=O)SCC(=O)c1ccc(NS(=O)(=O)c2ccc3c(c2)OCC(C)(C)CO3)nc1 [Example 16, Thioacetic acid S-{2-[6-(3,3-dimethyl-3,4-dihydro-2H-benzo[b][1,4]dioxepine-7-sulfonylamino)-pyridin-3-yl]-2-oxo-ethyl}ester] | ≤ 1000 nM |  |
|  | CC(=O)SCC(=O)c1csc(NS(=O)(=O)c2ccc3c(c2)OCCO3)n1 [Example 17, Thioacetic acid S-{2-[2-(2,3-dihydro-benzo[1,4]dioxine-6-sulfonylamino)-thiazol-4-yl]-2-oxo-ethyl}ester] | > 1000 nM |  |
|  | CC(=O)SCC(=O)c1cnc(NS(=O)(=O)c2ccc3c(c2)OCCO3)s1 [Example 18, Thioacetic acid S-{2-[2-(2,3-dihydro-benzo[1,4]dioxine-6-sulfonylamino)-thiazol-5-yl]-2-oxo-ethyl}ester] | ≤ 1000 nM |  |
|  | CC(=O)SCC(=O)c1ccc(NS(=O)(=O)c2ccc3nc(N4CCN(C)CC4)ccc3c2)nc1 [Example 19, Thioacetic acid S-(2-{6-[2-(4-methyl-piperazin-1-yl)-quinoline-6-sulfonylamino]-pyridin-3-yl}-2-oxo-ethyl)ester] | ≤ 1000 nM |  |
|  | CC(=O)SCC(=O)c1ccc(NS(=O)(=O)c2ccc3nc(N4CCCN(C)CC4)ccc3c2)nc1 [Example 20, Thioacetic acid S-(2-{6-[2-(4-methyl-[1,4]diazepan-1-yl)-quinoline-6-sulfonylamino]-pyridin-3-yl}-2-oxo-ethyl)ester] | ≤ 1000 nM |  |
|  | CC(=O)SCC(=O)c1ccc(NS(=O)(=O)c2ccc3nc(NCCN(C)C)ccc3c2)nc1 [Example 21, Thioacetic acid S-(2-{6-[2-(2-dimethylamino-ethylamino)-quinoline-6-sulfonylamino]-pyridin-3-yl}-2-oxo-ethyl)ester] | ≤ 1000 nM |  |
|  | CC(=O)SCC(=O)c1ccc(NS(=O)(=O)c2ccc3nc(NCCCN(C)C)ccc3c2)nc1 [Example 22, Thioacetic acid S-(2-{6-[2-(3-dimethylamino-propylamino)-quinoline-6-sulfonylamino]-pyridin-3-yl}-2-oxo-ethyl)ester] | ≤ 1000 nM |  |
|  | CC(=O)SCC(=O)c1ccc(NS(=O)(=O)c2ccc3nc(N(C)CCCN(C)C)ccc3c2)nc1 [Example 23, Thioacetic acid S-[2-(6-{2-[(3-dimethylamino-propyl)-methyl-amino]-quinoline-6-sulfonylamino}-pyridin-3-yl)-2-oxo-ethyl]ester] | ≤ 1000 nM |  |
|  | CC(=O)SCC(=O)c1ccc(NS(=O)(=O)c2ccc3nc(N(C)C)ccc3c2)nc1 [Example 24, Thioacetic acid S-{2-[6-(2-dimethylamino-quinoline-6-sulfonylamino)-pyridin-3-yl]-2-oxo-ethyl}ester] | ≤ 1000 nM |  |
|  | O=C(CCCCCCC(=O)Nc1ccccc1)NO [SAHA, reference compound] |  | T/C [2, 5]: 59%; T/C ([2]; 100 mg/kg QD orally): 65%; T/C ([2]; 125 mg/kg QD orally): 73%; T/C ([2]; 175 mg/kg QD orally): 41%; T/C ([2]; 250 mg/kg QD orally): 52%; T/C ([2]; 350 mg/kg QD orally): 24%; Lethality ([2]; 350 mg/kg daily oral gavage): lethality was observed; T/C ([2]; 475 mg/kg QD orally): 21%; T/C value for efficacy at MTD [2]: 52%; MTD ([3]; nude (nu/nu), po): 250 mg/kg |

| SMILES | IC50 [4] | IC50 [1] | other results |
| --- | --- | --- | --- |
| CC(=O)SCC(=O)c1ccc(NS(=O)(=O)c2ccc3c(c2)OCCO3)nc1 [Example 1] | ≤ 1000 nM | ≤ 1000 nM | Survival [2, 5]: 10/10; T/C [2, 5]: 53%; Tolerability (weight loss, mortality) ([2]; 50 mg/kg, determined previously): well tolerated; Survival ([2]; 100 mg/kg QD orally): 8/10; T/C ([2]; 100 mg/kg QD orally): 42%; Survival ([2]; 125 mg/kg QD orally): 7/10; T/C ([2]; 125 mg/kg QD orally): 29%; Survival ([2]; 175 mg/kg QD orally): 0/10; T/C ([2]; 175 mg/kg QD orally): 11%; Survival ([2]; 250 mg/kg QD orally): 2/10; T/C ([2]; 250 mg/kg QD orally): 15%; T/C value for efficacy at MTD [2]: 53%; MTD ([3]; daily oral gavage, highest dose without lethality or ≧20% bodyweight loss, read-out: Maximum tolerated dose (MTD)): < 100 mg/kg |
